From patent US20240082221A1, “COMPOSITIONS AND METHODS FOR THE IDENTIFICATION OF COMPOUNDS THAT PROTECT AGAINST LIPOFUSCIN CYTOTOXICITY” (priority 2021, published 2024)
Read-outs that look alike come from different tables or passages of the source.

Assays:
ARPE-19 cells = tested on: ARPE-19 cells
Protocol: Cell Viability Assay. […] 1× AlamarBlue solution prepared in OptiMEM was used to replace the media supernatant and the plate's fluorescence was determined at 555 nm excitation/585 nm emission with a SpectraMax M (Molecular Devices, CA, USA), after 1 h. […] The exact timing of appearance of far-red (DRAQ7=plasma membrane leakage) and blue (NUC405=caspase 3 activation) fluorescence signals was critical to differentiate apoptosis and necrosis from secondary events, such as membrane damage and generalized proteolytic activation during the late phase of apoptosis and necrosis, respectively.
Real time monitoring of necrotic and apoptotic cell-death. Cell-death assay to study Lipofuscin's dark toxicity was performed. 90% confluent ARPE-19 or hfRPE were incubated overnight in serum free media supplemented with indicated LB concentration. Viability was assessed at 24 hrs by AlamarBlue®, or microscopy with NUC405/DRAQ7. Real time monitoring of necrotic (red) and apoptotic (blue) cell-death was performed by automated fluorescence microscopy. The exact timing of appearance of far-red (DRAQ7=plasma membrane leakage) and blue (NUC405=caspase 3 activation) fluorescence signals was critical to differentiate apoptosis and necrosis from secondary events, such as membrane damage and generalized proteolytic activation during the late phase of apoptosis and necrosis, respectively.
Chemical inhibitors. Chemical inhibitors used in this study are described in FIG. 12.

IRE1α = assay: qPCR of spliced XBP1 (XBP1s) as readout of IRE1α activity in ARPE-19; format: cell-based, Human; settings: ARPE-19, qPCR
Source text: (§1) RNA isolation and quantitative PCR. Total RNA was extracted from cultured cells or mouse eye RPE layer using the RNeasy Mini kit (QIAGEN). The total RNA was digested with deoxyribonuclease I to prevent amplification of genomic DNA. The total RNA then was reversed transcribed using High-Capacity cDNA Reverse Transcription Kit (ThermoFisher Scientific, cat.no. 4368814) and analyzed gene expression using SYBR Green Master Mix (ThermoFisher Scientific, cat.no. 4472908) in an Applied Biosystems StepOne real time PCR machine. GAPDH was used as a reference gene. […] After genes were amplified by real time PCR, some of the PCR products were separated by 2.5% agarose gel.

XBP1s = assay: qPCR of XBP1 splicing in hfRPE; format: cell-based, Human
Source text: as §1

phospho-MLKL = assay: Intravitreal treatment of DKO mice, phospho-MLKL immunostaining of retina; format: in vivo, ABCA4−/− RDH8−/− double knock-out mice (DKO)
Protocol: Animals. Pigmented ABCA4^−/− RDH8^−/− double knock-out mice (DKO), free of rd8 mutation, were purchased from Jackson laboratories and every 10 generations were in house backcrossed to the C57BL6J control strain, to prevent genetic drifts. Genotyping was performed at Transnetyx (Memphis, TN). Only mice with ABCA4, RDH8, RPE65-Leu450 but no crb1 mutations (retinal degeneration slow) were maintained in the colony. Controls C57BL/6J (Rpe65-Leu450, crb1negative) were also Jackson's lab. All mice were housed at Weill Cornell Medicine's animal facility under a 12 h light (˜10 lux)/12 h dark cycle environment or under complete darkness. Experimental manipulations in the dark were done under dim red light transmitted through a Kodak No. 1 safelight filter (transmittance >560 nm). No retinal degeneration or necroptosis markers were appreciably detected in 20 months or older C57BL6/N (Rpe65-Met450, crb1 positive) obtained from the NAI/NIH. All animal procedures and experiments were approved by the Animal Care and Use Committee of Weill Cornell Medical College in agreement with the guidelines established by the NIH Office of Laboratory Animal Welfare and the Association of Research for Vision and Ophthalmology (ARVO) statement for the use of animals in ophthalmic research.
RPE and Neural retina flat mounts. Mouse eyes were enucleated and placed in 4% PFA in PBS for 1 h at room temperature. After fixing, a 23G needle was used to make a hole at the limbus area and iris scissors used to cut around the circumference of the limbus, remove the cornea, iris and lens, separate the neuronal retina and sclera by micro-forceps. Neuronal retina and RPE layer were dissected out and incubated with blocking buffer (1% BSA and 0.3% Triton-X-100 in PBS) for at least 20 min. Primary antibodies were added to the blocking buffer and kept at 4° C. overnight. Retina and RPE layer were washed and incubated with secondary antibodies for at least 30 min at room temperature, then washed with PBS three times. Under the dissection microscope, retina or RPE layer was cut into a four-leaf clover shape and mount on the slides in mount medium (EMS glycerol mounting medium with DAPI and DABCO, cat. No. 17989-61). Slides were stored at 4° C. until imaging.
Cryosections and Immunofluorescence staining. Mouse eyes were fixed with 4% PFA and penetrated with 30% sucrose overnight at 4° C., then cryopreserved in Tissue-Tek OCT compound (Sakura Finetek, Torrance, CA, USA) and cut into 15 μm sections. Sections were blocked with 1% BSA and 0.1% Triton-X-100 PBS, and then immunofluorescence staining was performed using standard methods and the appropriate dilutions of primary antibodies against p- p-MLKL (cell signaling), XBP1s (Biogend), Iba-1 (Abcam), CD11b (Millipore), Lamp2 (hybridoma bank), CellRox and DRAQ7 (Invitrogen), Rhodopsin (Abcam), phalloidin-CF660 (Biotium, cat.no. 0052), Hoechst33324, caspase3 (clone9664, Cell signaling). Subsequently, slides were incubated with Alexa-647, Alexa-594 secondary antibodies, and counterstained with Hoechst33324. Negative controls were included in each staining, and slides were mounted with anti-fade mount medium. Slides were stored at 4° C. before analysis on SD microscope using Zen software. For paraffin sections, mouse eyes were embedded in paraffin and cut into 5-μm sections. […]
Pharmacological treatment of mice. […] The exact volume of Mock reagent or Kira6 was determined by 10 μl Hamilton syringe. […]

SMILES | protection against light-independent LF (A2E/ATRD) cytotoxicity, RPE survival (ARPE-19 cells; ARPE-19, inhibitor pretreatment, A2E/ATRD 24 h, no light, AlamarBlue) | protection against light-independent LF (A2E/ATRD) cytotoxicity, RPE survival (ARPE-19 cells; ARPE-19, inhibitor pretreatment, A2E/ATRD 24 h, no light, AlamarBlue, listed as Nec-7) | effect on LF-induced XBP1 splicing (XBP1s, IRE1α activity) (IRE1α) | effect on LF-induced XBP1 splicing in hfRPE (XBP1s) | membrane and cytosolic pMLKL labeling in RPE flat mounts (phospho-MLKL; 12 month old DKOs, single intraocular injection, analyzed one week later) | membrane and cytosolic phospho-MLKL staining in RPE flat mounts (phospho-MLKL; 26-month-old DKO mice, 2 μl intraocular, a week later) | phospho-MLKL (necroptosis) labeling in neuroretina-flat mounts (phospho-MLKL; DKO mice, intraocular, 1 week earlier) | protection against light-independent LF (A2E/ATRD) cytotoxicity, RPE survival (ARPE-19 cells) | necroptosis, intracellular and plasma membrane pMLKL labelling in RPE flat mounts (phospho-MLKL; 26 month old DKO mice, intraocular, a week later) | pMLKL/XBP1s double positive cells (RPE and microglia) (phospho-MLKL; demelanized paraffin cross-sections, 20 month old DKOs, control 33%) [%]
N=C1S/C(=C\c2cn[nH]c2-c2ccc(F)cc2)C(=O)N1c1nccs1 [Nec7, Necrostatin 7] | highly protective | protects against necroptosis by lipofuscin | completely abrogated | prevention | reduced to undetectable levels | reduced membrane and cytosolic phospho-MLKL staining to undetectable levels | significantly reduced | – | – | –
CC(C)(C)c1nc(-c2ccc(NC(=O)Nc3cccc(C(F)(F)F)c3)c3ccccc23)c2c(N)nccn12 [KIRA6] | – | – | – | – | – | – | – | sufficient to protect against necroptosis by LF | abrogated necroptosis | 4
